Values of other authors, collected in article PMC8597081, “Diphenylalanine Motif Drives Self‐Assembling in Hybrid PNA‐Peptide Conjugates” (Chemistry (Weinheim an Der Bergstrasse, Germany), 2021).

Conditions: N3-protonated cytosine; N7-protonated guanine
Protocol: Nevertheless, as it can be seen in the 1D spectra (Figure S12) even at 46.9 mM concentration, the absence of a signal at low field arising from the imino proton let speculate that guanine and cytosine are not paired.

Row | pKa | Structure (SMILES)
1 | 1.9–2.2 | Nc1nc2nc[nH]c2c(=O)[nH]1 [guanine]
2 | 4.2 | Nc1cc[nH]c(=O)n1 [cytosine]
